According to patent publication US10137171B2, “Methods of treatment using a pentapeptide derived from the C-Terminus of Glucagon-Like Peptide 1 (GLP-1)” (The General Hospital Corporation, priority 2011, dated 2018):
Where no end group is shown, it is not given here.

Columns and labels:
[1] = system: diet-induced obese mice; assay: Intraperitoneal glucose tolerance test (ipGTT); format: in vivo, mouse; conditions: glucose 2 g/kg BW ip, overnight fasted, VHFD 24 weeks
Experimental: FIGS. 5C-D are a pair of line graphs Plasma glucose levels (FIG. 5C) and (FIG. 5D) Plasma insulin levels after an intraperitoneal glucose administration ([…] BW ip) in overnight fasted mice fed in VHFD for 24-weeks and 16-weeks of continuous infusions of vehicle or GLP-1(32-36)amide. ***p<4E-03 vehicle vs. GLP-1(32-36)amide, *p<0.01 vehicle vs. GLP-1(32-36)amide, **p<0.004 vehicle vs. GLP-1(32-36)amide, *****p<1.7E-05 vehicle vs. GLP-1(32-36)amide, ****p<6.7 E-04 vehicle vs. GLP-1(32-36)amide.
Mice were maintained in a normal light/dark cycle according to the standard protocols of the MGH Animal Care and Use Committee. Mice were tested with age matched or litter mate controls and 6 mice per group are required. […] The following morning the mice were prepared for the glucose tolerance test: animals were weighed, the tail was nicked with a fresh razor blade by a horizontal cut of the very end, ˜35 to 50 microliters of blood is massaged from the tail to an eppendorf tube which is immediately placed on ice, baseline blood glucose is measured by the glucose oxidase method using a Glucometer Elite glucometer, and 2 grams/kg body weight of 20% D-glucose is drawn up in a Beckton Dickenson D 29 gage ½″ insulin syringe (one unit of D-glucose for every gram of body weight). Animals were then transferred to individually labeled 1000 cc cardboard soup cups with the lid liners removed.
Following animal preparation, glucose was injected into the intraperitoneal cavity. At 10, 20, 30, 60, 120, and 140 minutes blood glucose is sampled from the tail of each mouse by gently massaging a small drop of blood onto the glucometer strip. Glucose injections and blood glucose sampling is timed to take approximately the same amount of time per animal (i.e. 25 animals are injected in 12 minutes and blood glucose sampling of those same 25 animals should also take about 12 minutes) so that the sample times are accurate for each animal.

[2] = system: insulin-resistant isolated mouse hepatocytes; assay: Glucose production assay in isolated hepatocytes; format: cell-based; conditions: stimulated by cAMP/dexamethasone/lactate; basal glucose production not suppressed
Excerpt: FIG. 8 is a bar graph showing suppression of glucose production by the pentapeptide GLP-1(32-36)amide (LVKGRamide (SEQ ID NO:1)) in insulin-resistant hepatocytes. Mice (male, C57bl/6) from 12-19 weeks of age were fasted overnight (16 hrs) and primary hepatocytes were isolated using a collagen and perfusion gradient purification. Cells were first seeded using a Dulbecco's modified Eagle's medium (DMEM) supplemented with 10% FBS, 1 g/L glucose, 2 mmol/1 sodium pyruvate, 1 micromol/L dexamethasone, and 0.1 micromol/L insulin, and later maintained in DMEM with 0.2% BSA, 1 g/L glucose, 0.1 micromol/L dexamethasone, and lnmol/L insulin. […] The readings were then normalized to total protein content determined from whole-cell lysates. […]
Primary hepatocytes (2×10^5 cells per well in twelve-well plates) were pre-treated with GLP-1(32-36)amide for 1 hour followed by the stimulation of insulin resistance by the addition of cAMP (10 microM)/dexamethasone ([…])/sodium lactate (2 mM) in glucose-free DMEM without phenol red. […] The readings were then normalized to total protein content determined from whole-cell lysates.

[3] = Plasma peptide concentrations by LC-MS after continuous infusion; format: in vivo, mouse
Experimental: (§1) Mice were given single i.v. injections of the propeptide, GLP-1(9-36)amide and blood samples were taken at times 2, 5, and 10 min. Plasma was assayed for the presence of GLP-1(9-36)amide, GLP-1(28-36)amide, and GLP-1(32-36)amide by electron spray mass spectrometry (ES-MS. Pooled plasma samples collected after a 28 day continuous infusion of GLP-1(9-36)amide or GLP-1(28-36)amide in mice were assayed for peptide concentrations by liquid chromatography mass spectrometry (LC-MS).

[4] = Mass spectrometry of mouse plasma after i.v. injection of GLP-1(9-36)amide; format: in vivo
Experimental: FIG. 7B is a line graph showing the results of experiments involving intravenous push injection of GLP-1(9-36)amide, 32-36 amide, and […] into mice, collecting blood plasma at 2, 5, and 10 min, and analyzing the peptide profiles by liquid chromatography-mass spectrometry (LC-MS). Relative amounts of peptides at times indicated are shown. Y-axis, arbitrary units
as §1

[5] = pooled mouse plasma after four weeks infusion

Row | level at time molar at 672 h ([3]; mouse, plasma, 2.0 mg/ml in the osmopump, four weeks infusion, read-out: plasma levels of GLP-1(28-36)amide in mice infused with GLP-1(28-36)amide) [nM] | plasma levels of GLP-1(28-36)amide in mice infused with GLP-1(9-36)amide [3, 5] [nM] | plasma concentration of GLP-1(9-36)amide during its continuous infusion [3, 5] | presence of nona and pentapeptides in plasma after injection of GLP-1(9-36)amide ([4]; mouse plasma 2 min after i.v. injection, mass spectrometry) | conversion of GLP-1(9-36)amide to the nona and pentapeptides in the circulation ([4]; mouse plasma, i.v. pulse injection) | Substance | glycemic response in ipGTT ([1]; 16 weeks infusion (FIG. 5C)) | insulin response in ipGTT ([1]; 16 weeks infusion (FIG. 5D)) | glucose production (formation) [2]
1 | ~0.24 | ~0.1 |  |  |  | FIAWLVKGR-NH2 [GLP-1(28-36)amide, FIAWLVKGRamide] | normal glycemic response | strong insulin response | dose-dependently suppressed
2 |  |  | not detectable | readily detected | rapidly converted | GLP-1(9-36)amide |  |  | 
